Measured values published in patent US20100197782A1, “THERAPEUTIC AGENT FOR VIRUS-ASSOCIATED MALIGNANCY” (priority 2006, published 2010).

What was measured:
[1] = tested on: HTLV-I-infected T-lymph cell lines (MT-2, MT-4, HUT-102, ED-40515 (−)); experiment: Measurement of proliferation potency of HTLV-I-infected T-lymph cell lines (WST-8 cell survival rate); type: cell-based; conditions: for effect on the growth of HTLV-I-infected T-lymph cell lines: 10, 5, 2.5 μM, FIG. 3; for effect on the growth of HTLV-I-infected T-lymph cell lines / growth of HTLV-I-infected T-lymph cell lines (cell survival rate): WST-8; for growth of HTLV-I-infected T-lymph cell lines (cell survival rate): 10, 5, 2.5, 1.25, 0.625 μM, FIG. 1
Method: (§1) After adding “WST-8” (manufactured by Wako Pure Chemical Industries, Ltd.) in an amount of 5 μL/well as a coloring substrate, cells were cultured for four hours at 37° C.
(§2) Cell survival rate (%)=[1−(A−B)/A]×100 [Formula 1]
(§3) A: Absorbance without agent treatment
(§4) A: Absorbance with agent treatment

[2] = tested on: PBMC (leukemia cells) of adult T-cell-leukemia (ATL) patients; experiment: Measurement of proliferation potency of peripheral blood mononuclear cells of ATL patients (WST-8); type: cell-based, human; conditions: 24 hours; for growth of leukemia cells in ATL patients (PBMC survival rate): five ATL patients, fucoxanthin 0.625-10 μM, fucoxanthinol 0.625-2.5 μM, FIG. 4
PBMC of a healthy person = experiment: Measurement of proliferation potency of peripheral blood mononuclear cells of a healthy person (WST-8); conditions: for action on normal cells: normal cells versus HTLV-1-infected cells and ATL cells
Method: First, the peripheral blood mononuclear cells (PBMC) were separated by the Ficoll centrifugal specific gravity method. The cells were diluted with an RPMI 1640 culture medium containing 10% fetal bovine serum to 2×10^6 cells/mL and spread over a 96-well plate in an amount of 1×10^5 cells/well.
Next, 50 μL/well of fucoxanthin and fucoxanthinol were added to make final concentrations of 10, 5, 2.5, 1.25, and 0.625 μM (fucoxanthin) or 2.5, 1.25 and 0.625 μM (fucoxanthinol), followed by incubation at 37° C. for 24 hours. After adding WST-8 in an amount of 5 μL/well, the cells were cultured for four hours at 37° C. After culturing, absorbance at a wavelength of 450 nm was measured by a microplate reader to determine the survival rate of the cells using the above formula.

[3] = tested on: HTLV-I-infected cell lines (MT-2, MT-4, HUT-102, ED-40515 (−)); experiment: Measurement of apoptosis of HTLV-I-infected cell lines (annexin V, flow cytometry); type: cell-based
Method: After 24 hours, the cells were collected and dyed with annexin V to measure the rate (%) of apoptosis-positive cells using a flow sight meter.

[4] = tested on: HTLV-I-infected cell lines (MT-2, MT-4, HUT-102, ED-40515 (−)); experiment: Measurement of cell-cycle of HTLV-I-infected cell lines (propidium iodide, flow cytometry); type: cell-based; conditions: 5 μM, 24 hours; FIG. 5
Method: 1×10^6 cells of HTLV-I-infected cell lines (MT-2, MT-4, HUT-102, ED-40515 (−)) were scattered over a cell culture plate, and 5 μM of fucoxanthin was added, followed by incubation at 37° C. for 24 hours. After 24 hours, the cells were collected and dyed with propidium iodide to measure the DNA content using a flow sight meter. The cell cycle of each cell was judged by calculating the distribution of the cell group of each cell cycle from the result of the DNA content.

[5] = tested on: EBV-infected B cell lines (Raji, Daudi, B95-8/BJAB, B95-8/Ramos, LCL-Ka, LCL-Ku); experiment: Measurement of proliferation potency of EBV-infected B cell lines (WST-8 cell survival rate); type: cell-based; conditions: 24 hours; for growth of EBV-infected BL cell lines (cell survival rate): 10, 5, 2.5, 1.25, 0.625 μM, WST-8, FIG. 2
Method: as §1, §2, §3, §4

[6] = HTLV-1-infected cells and ATL cells

| Compound | effect on the growth of HTLV-I-infected T-lymph cell lines ([1]; 24 hours) | growth of leukemia cells in ATL patients (PBMC survival rate) [2] | action on normal cells (PBMC of a healthy person) | growth of HTLV-I-infected T-lymph cell lines (cell survival rate) ([1]; 24 hours) | concentration causing apoptosis compared with β-carotene or astaxanthin [3, 6] | growth of EBV-infected BL cell lines (cell survival rate) [5] | other results |
| --- | --- | --- | --- | --- | --- | --- | --- |
| CC1=C(/C=C/C(C)=C/C=C/C(C)=C/C=C/C=C(C)/C=C/C=C(C)/C=C/C2=C(C)C(=O)[C@@H](O)CC2(C)C)C(C)(C)C[C@H](O)C1=O [astaxanthin, reference compound] | only a slight effect |  |  |  |  |  |  |
| CC(=O)O[C@H]1CC(C)(C)C(=C=C/C(C)=C/C=C/C(C)=C/C=C/C=C(C)/C=C/C=C(\C)C(=O)C[C@@]23O[C@]2(C)C[C@@H](O)CC3(C)C)[C@](C)(O)C1 [fucoxanthin] |  | concentration-dependently suppressed the growth | substantially do not act on normal cells | concentration-dependently suppressed the growth | significantly lower than the corresponding concentration of β-carotene or astaxanthin | concentration-dependently suppressed the growth | apoptosis of HTLV-I-infected cell lines (annexin V positive cells) ([3]; MT-2, MT-4, HUT-102, ED-40515 (−), 24 hours, FIG. 6): induces apoptosis in all HTLV-I infected cell lines; concentration dependence of apoptosis of MT-2 ([3]; MT-2, 10, 5, 2.5 μM, 24 hours, FIG. 7): concentration dependent; effect on the cell cycle of HTLV-I-infected cell lines [4]: suspends the cell cycle of all HTLV-I-infected cell lines at the G1 phase |
| C\C(C=C=C1C(C)(C)C[C@H](O)C[C@@]1(C)O)=C/C=C/C(C)=C/C=C/C=C(C)/C=C/C=C(\C)C(=O)C[C@@]12O[C@]1(C)C[C@@H](O)CC2(C)C [fucoxanthinol] |  | concentration-dependently suppressed the growth | substantially do not act on normal cells | concentration-dependently suppressed the growth | significantly lower than the corresponding concentration of β-carotene or astaxanthin | concentration-dependently suppressed the growth | effect on growth potency compared with fucoxanthin ([2]; PBMC of ATL patients): higher than that of fucoxanthin; toxicity against the PBMC of the healthy person (PBMC of a healthy person; fucoxanthin 0.625-10 μM, fucoxanthinol 0.625-2.5 μM, 24 hours, FIG. 4): no toxicity; survival rate of the cells ([1]; HTLV-1-infected cells and ATL cells, at a concentration of one micromole or less): almost zero; capability to inhibit growth compared with fucoxanthin ([1]; HTLV-I-infected T-lymph cell lines, 24 hours): significantly higher than that of fucoxanthin; concentration causing apoptosis [3, 6]: one micromole or less; apoptosis-inducing effect compared with fucoxanthin ([3]; MT-2, 24 hours): stronger than that of fucoxanthin; apoptosis of MT-2 (annexin V positive cells) ([3]; MT-2, 10, 5, 2.5, 1.25, 0.625 μM, 24 hours, FIG. 8): induces apoptosis in MT-2; capability to inhibit growth compared with fucoxanthin ([5]; EBV-infected BL cell lines): significantly higher than that of fucoxanthin |
| CC1=C(/C=C/C(C)=C/C=C/C(C)=C/C=C/C=C(C)/C=C/C=C(C)/C=C/C2=C(C)CCCC2(C)C)C(C)(C)CCC1 [β-carotene, reference compound] | only a slight effect |  |  |  |  |  |  |
